Results reported in US6809112B2, “Method of treating sexual disturbances” (priority 1999, dated 2004).

Q: For `CN[C@@H]1Cc2cccc3[nH]c(=S)n(c23)C1.O=C(O)CC(O)C(=O)O`, which melting point is on record?
A: 195 to 196 °C
